Experimental data reported in patent EP4722219A1 (Gan & Lee Pharmaceuticals Co., Ltd., priority 2023, dated 2024).

Experiments:
Format in all cases: cell-based
T-47D cells = assay: Inhibition of cell proliferation in T-47D cells (CCK-8); conditions: 6 days treatment, CCK-8 cell viability
Summary of the method: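 Viability by CCK-8 after a 6-day, 37 °C/5% CO2 exposure of T-47D cells (3,000/well, RPMI-1640 + 10% FBS) to graded PROTAC concentrations. Inhibition rates gave the IC50.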

ERα [1] = target: T1, ERα (Homo sapiens, UniProt P03372); assay: ERα degradation in MCF-7 cells (Western blot); parameters: host or cells: MCF-7; conditions: 4 hours
T1 sequence (P03372 1-595): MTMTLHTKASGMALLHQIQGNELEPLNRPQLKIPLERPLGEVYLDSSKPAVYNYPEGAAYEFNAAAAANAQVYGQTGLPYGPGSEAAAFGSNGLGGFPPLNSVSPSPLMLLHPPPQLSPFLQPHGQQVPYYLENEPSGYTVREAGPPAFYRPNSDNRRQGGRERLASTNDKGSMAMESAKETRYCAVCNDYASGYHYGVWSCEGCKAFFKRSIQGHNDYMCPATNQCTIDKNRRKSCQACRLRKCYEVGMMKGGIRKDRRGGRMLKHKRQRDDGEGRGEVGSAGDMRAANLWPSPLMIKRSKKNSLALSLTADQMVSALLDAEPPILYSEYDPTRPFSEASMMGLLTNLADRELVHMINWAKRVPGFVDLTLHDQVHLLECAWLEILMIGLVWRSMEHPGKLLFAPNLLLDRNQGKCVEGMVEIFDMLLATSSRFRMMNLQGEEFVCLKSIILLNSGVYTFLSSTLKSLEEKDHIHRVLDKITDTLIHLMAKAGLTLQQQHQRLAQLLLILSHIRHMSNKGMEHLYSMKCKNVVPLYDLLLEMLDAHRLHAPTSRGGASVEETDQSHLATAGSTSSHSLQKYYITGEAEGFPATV
Summary of the method: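 ERα degradation was quantified by immunoblot densitometry, ERα signal divided by internal-reference signal and compared with control. Compounds were applied to MCF-7 cells for 4 hours at final concentrations of 0.15–1000 nM, with 20 µg total protein loaded per lane.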

ERα [2] = target: T1, ERα; assay: ERα degradation in T-47D cells (Western blot); conditions: 4 hours
Summary of the method: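 ERα was quantified by immunoblot of RIPA lysates (20 µg total protein), normalised to an internal reference band, and degradation was expressed against control. Lysates came from T-47D cells plated at 3×10^5 cells/well and dosed 4 hours at 37°C with compound at 0.15-1000 nM final concentration.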

MCF-7 cells = assay: Inhibition of cell proliferation in MCF-7 cells (CCK-8); conditions: MCF-7 cell proliferation, 6 days treatment
Summary of the method: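 IC50 from CCK-8 viability-based inhibition after 6-day treatment of MCF-7 cells (800 cells/well, 10% FBS DMEM, 37 °C, 5% CO2) with serially varied compound concentrations.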

| IC50 (T-47D cells) [nM] | Structure (SMILES) | IC50 (T-47D cells; Homo sapiens, T47D, 144 h) [nM] | Degradation rate of ERα in MCF-7 cells (%) (ERα [1]; 1nM) | Degradation rate of ERα in MCF-7 cells (%) (ERα [1]; 10nM) | Degradation rate of ERα in T-47D cells (%) (ERα [2]; 1nM) | Degradation rate of ERα in T-47D cells (%) (ERα [2]; 10nM) | IC50 (MCF-7 cells; Homo sapiens, MCF7, 144 h) [nM] | IC50 (MCF-7 cells) [nM] |
| --- | --- | --- | --- | --- | --- | --- | --- | --- |
| – | O=C1CCC(N2Cc3c(ccc4c3OCC43CCC4(CCN(C5CCC6(CC5)CN(c5ccc([C@@H]7c8ccc(O)cc8CC[C@@H]7c7ccccc7)cc5)C6)CC4)CC3)C2=O)C(=O)N1 (stereo partly drawn) [ER-P-2] | 2.02 | 7 | 48 | 26 | 54 | 62.6 | – |
| 115 | COc1c(C(=O)N[C@H]2CCC(=O)NC2=O)ccc2c1OC[C@H]1CN(CC3CCC(OC4CCN(c5ccc([C@@H]6c7ccc(O)cc7CC[C@@H]6c6ccccc6)cc5)CC4)CC3)CCN21 (stereo partly drawn) [ER-P-48, (R)-N-((S)-2,6-dioxopiperidin-3-yl)-3-(((1S,4S)-4-((1-(4-((1R,2S)-6-hydroxy-2-phenyl-1,2,3,4-tetrahydronaphthalen-1-yl)phenyl)piperidin-4-yl)oxy)cyclohexyl)methyl)-7-methoxy-1,2,3,4,4a,5-hexahydrobenzo[b]pyrazi no[1,2-d][1,4]oxazine-8-carboxamide] | – | 13 | -1 | 6 | 0 | – | 7390 |
| – | Cn1c(=O)n(C2CCC(=O)NC2=O)c2ccc3c(c21)OCC31CCN(CC2CCN(C(=O)C3CCN(c4ccc([C@@H]5c6ccc(O)cc6CC[C@@H]5c5ccccc5)cc4)CC3)CC2)CC1 (stereo partly drawn) [ER-P-63, 3-(1'-((1-(1-(4-((1R,2S)-6-hydroxy-2-phenyl-1,2,3,4-tetrahydronaphthalen-1-yl)phenyl)piperidine-4-carbonyl)piperidin-4-yl)methyl)-1-methyl-2-oxo-1,2-dihydro-3H,7H-spiro[benzofuro[6,7-d]imidazole-6,4'-piperidin]-3-yl)piperidine-2,6-dione] | 1.15 | 53 | 56 | 56 | 65 | 3750 | – |
| – | Cn1c(=O)n(C2CCC(=O)NC2=O)c2cc3c(cc21)C1(CCN(C2CCC4(CC2)CCN(c2ccc([C@@H]5c6ccc(O)cc6CC[C@@H]5c5ccccc5)cc2)CC4)CC1)CO3 (stereo partly drawn) [ER-P-60] | 1.41 | 14 | 36 | 21 | 51 | 0.362 | – |
| – | O=C1CCC(n2c(=O)n3c4c(cccc42)N(C[C@H]2CC[C@@H](OC4CCN(c5ccc([C@@H]6c7ccc(O)cc7CC[C@@H]6c6ccccc6)cc5)CC4)CC2)CC3)C(=O)N1 (stereo partly drawn) [ER-P-56, 3-(6-(((1S,4s)-4-((1-(4-((1R,2S)-6-hydroxy-2-phenyl-1,2,3,4-tetrahydronaphthalen-1-yl)phenyl)piperidin-4-yl)oxy)cyclohexyl)methyl)-2-oxo-5,6-dihydro-4H-imidazo[1,5,4-de]quinoxalin-1(2H)-yl)piperidine-2,6-dione] | 42.2 | -4 | 16 | 22 | 24 | 2460 | – |
| – | C[C@@H]1Cc2cc(O)ccc2C(c2c(F)cc(N3CCC4(CC3)CC(N3CC5(CCC6(CC5)COc5c6ccc6c5CN(C5CCC(=O)NC5=O)C6=O)C3)C4)cc2F)N1CC(F)F (stereo partly drawn) [ER-P-28, 3-(1-(7-(4-((3R)-2-(2,2-difluoroethyl)-6-hydroxy-3-methyl-1,2,3,4-tetrahydroisoquinolin-1-yl)-3,5-difluorophenyl)-7-azaspiro[3.5]nonan-2-yl)-6"-oxo-6",8"-dihydro-2"H,7"H-dispiro[azetidine-3,1'-cyclohexane-4',3"-furo[2,3-e]isoindol]-7"-yl)piperidine-2,6-dione] | 1.56 | 38 | 63 | 41 | 59 | < 0.256 | – |
| – | Cn1c(=O)n(C2CCC(=O)NC2=O)c2cc3c(cc21)C1(CCN(C[C@H]2CC[C@@H](OC4CCN(c5ccc([C@@H]6c7ccc(O)cc7CC[C@@H]6c6ccccc6)cc5)CC4)CC2)CC1)CO3 (stereo partly drawn) [ER-P-55, 3-(1'-(((1S,4S)-4-((1-(4-((1R,2S)-6-hydroxy-2-phenyl-1,2,3,4-tetrahydronaphthalen-1-yl)phenyl)piperidin-4-yl)oxy)cyclohexyl)methyl)-1-methyl-2-oxo-1,2-dihydro-3H,6H-spiro[benzofuro[5,6-d]imidazole-7,4'-piperidin]-3-yl)piperidine-2,6-dione] | 0.18 | 35 | 69 | 62 | 87 | 113 | – |
| – | O=C1CCC(Nc2ccc3c(c2)COC[C@H]2CN(C[C@H]4CC[C@@H](OC5CCN(c6ccc([C@@H]7c8ccc(O)cc8CC[C@@H]7c7ccccc7)cc6)CC5)CC4)CCN32)C(=O)N1 (stereo partly drawn) [ER-P-34, 3-(((R)-3-(((1S,4S)-4-((1-(4-((1R,2S)-6-hydroxy-2-phenyl-1,2,3,4-tetrahydronaphthalen-1-yl)phenyl)piperidin-4-yl)oxy)cyclohexyl)methyl)-1,2,3,4,4a,5-hexahydro-7H-benzo[e]pyrazino[2,1-c][1,4]oxazepin-9-yl)amino)piperidine-2,6-dione] | 26.9 | 5 | 17 | 15 | 24 | 2120 | – |
| – | O=C1CC[C@H](NC(=O)c2ccc3c(c2F)OCC32CCN(C3CCC4(CC3)CCN(c3ccc([C@@H]5c6ccc(O)cc6CC[C@@H]5c5ccccc5)cc3)CC4)CC2)C(=O)N1 [ER-P-39, N-((S)-2,6-dioxopiperidin-3-yl)-7-fluoro-1'-(3-(4-((1R,2S)-6-hydroxy-2-phenyl-1,2,3,4-tetrahydronaphthalen-1-yl)phenyl)-3-azaspiro[5.5]undecan-9-yl)-2H-spiro[benzofuran-3,4'-piperidine]-6-carboxamide] | 14.2 | -13 | -16 | -7 | -3 | 526 | – |
| – | O=C1CCC(Nc2ccc3c(c2)COC[C@H]2CN(CC4CCC(OC5CCN(c6ccc([C@@H]7c8ccc(O)cc8CC[C@@H]7c7ccccc7)cc6)CC5)CC4)CCN32)C(=O)N1 (single isomer, unassigned) [ER-P-50] | 45.6 | 1 | 9 | 4 | 18 | – | 3270 |
| – | O=C1CCC(Nc2ccc3c(c2)OC[C@@H]2CN(C4CC5(CCN(c6ccc([C@@H]7c8ccc(O)cc8CC[C@@H]7c7ccccc7)cc6)CC5)C4)CCN32)C(=O)N1 (stereo partly drawn) [ER-P-35] | 22.7 | 6 | -3 | 21 | 21 | 876 | – |
